According to patent US20200256853A1, “Models of Reconstructed Sensitive Skin” (Laboratoires Expanscience, priority 2017, published 2020):

Experiments:
Format in all cases: cell-based
[1] = system: reconstructed Sensitive Skin model (reconstructed human epidermises treated with 0.6% lactic acid); test: Determinations of released inflammatory mediators (ELISA) in reconstructed Sensitive Skin model, Example 3; settings: for Released IL1-alpha Change / Released IL8 Change / Released PGE2 Change: change vs. lactic acid
Procedure: (§1) Reconstructed human epidermises were obtained from the keratinocytes of a […] donor using the method derived from Poumay et al. (Arch Dermatol Res 2004; 296:203-11). After 2 days of immersion culture, the reconstructed human epidermises were cultured at the air/liquid interface for 10 days.
(§2) Epidermises at differentiation day 10 was treated or not (control) systemically with the test compounds and incubated for 24 hours.
(§3) The amount of inflammatory mediators IL-1alpha (IL1α), IL-8 and PGE2 present in skin culture supernatants was evaluated using ELISA kits (R&D Systems). • Evaluations of intracellular inflammatory markers IL-1α, IL8 and IL1-RA (n=2)

[2] = system: reconstructed Sensitive Skin model (reconstructed human epidermises treated with 0.6% lactic acid); test: Intracellular measurements of inflammatory mediators (ELISA) in reconstructed Sensitive Skin model, Example 3; settings: for IL1RA/IL1-alpha ratio Change / Intracellular IL1-alpha Change / Intracellular IL1RA Change / Intracellular IL8 Change: change vs. lactic acid
Procedure: Intracellular amounts of IL-1α, IL8 and IL1-RA were determined by ELISA (R&D Systems) in ground epidermis (n=2).
as §1, §2, §3
(§4) Same protocol as described in Example 2. • Determination of Poly-Unsaturated Fatty Acids (PUFAs) (n=2)

[3] = system: reconstructed Sensitive Skin model (reconstructed human epidermises treated with 0.6% lactic acid); test: Determination of PUFAs (GC/MS) in reconstructed Sensitive Skin model, Example 3; settings: for C18:1 Change / C18:2 LA Change / C20:4 AA Change: change vs. lactic acid
Procedure: Screening of polyunsaturated fatty acids (PUFAs) expressed by the epidermis was carried out by GC/MS analysis of samples obtained after grinding the epidermises (n=2).
The amounts were normalized by C16:0 (palmitic acid), which is representative of the overall lipid content of the epidermis.
as §1, §2, §4
Same protocol as described in Example 2.

[4] = OX100 100 μM + lactic acid 0.6%

## CC1(C)[C@@H](O[C@H]2O[C@H](C(=O)[O-])[C@@H](O)[C@H](O)[C@H]2O[C@@H]2O[C@H](C(=O)[O-])[C@@H](O)[C@H](O)[C@H]2O)CC[C@]2(C)[C@H]3C(=O)C=C4[C@@H]5C[C@@](C)(C(=O)O)CC[C@]5(C)CC[C@@]4(C)[C@]3(C)CC[C@@H]12.[K+].[K+] [GLY, Dipotassium glycyrrhizinate]
[1]; GLY 0.005% + lactic acid 0.6%
  Released IL1-alpha Mean ± Standard deviation: 28 ± 10 pg/mL
  Released IL8 Mean ± Standard deviation: 211 ± 41 pg/mL
  Released PGE2 Mean ± Standard deviation: 94 ± 36 pg/mL
  Released IL1-alpha Change: −59%
  Released IL8 Change: +1%
  Released PGE2 Change: −52%
[1]; GLY 0.01% + lactic acid 0.6%
  Released IL1-alpha Mean ± Standard deviation: 35 ± 16 pg/mL
  Released IL8 Mean ± Standard deviation: 244 ± 138 pg/mL
  Released PGE2 Mean ± Standard deviation: 137 ± 83 pg/mL
  Released IL1-alpha Change: −49%
  Released IL8 Change: +17%
  Released PGE2 Change: −31%
[1]; concentration not given
  Release of IL1α induced by lactic acid (in words): significantly inhibited
  Release of PGE2 induced by lactic acid (in words): significantly inhibited
[2]; GLY 0.005% + lactic acid 0.6%
  IL1RA/IL1-alpha ratio Mean ± SD: 25.6 ± 1.29
  Intracellular IL1-alpha Mean ± SD: 987.5 ± 101.1 pg/mg protein
  Intracellular IL1RA Mean ± SD: 25195 ± 1305 pg/mg protein
  Intracellular IL8 Mean ± SD: 78.39 ± 6.350 pg/mg protein
  IL1RA/IL1-alpha ratio Change: +3%
  Intracellular IL1-alpha Change: −5%
  Intracellular IL1RA Change: −2%
  Intracellular IL8 Change: −1%
[2]; GLY 0.01% + lactic acid 0.6%
  IL1RA/IL1-alpha ratio Mean ± SD: 19.1 ± 0.212
  Intracellular IL1-alpha Mean ± SD: 587.0 ± 63.64 pg/mg protein
  Intracellular IL1RA Mean ± SD: 11244 ± 1341 pg/mg protein
  Intracellular IL8 Mean ± SD: 50.17 ± 3.366 pg/mg protein
  IL1RA/IL1-alpha ratio Change: −23%
  Intracellular IL1-alpha Change: −44%
  Intracellular IL1RA Change: −56%
  Intracellular IL8 Change: −37%
[2]; concentration not given
  IL1RA/IL1α ratio (in words): maintained the IL1RA/IL1α ratio
  Increase in intracellular IL1RA level induced by lactic acid treatment (in words): significantly inhibited
  Increase in intracellular IL1α level induced by lactic acid treatment (in words): significantly inhibited
  Increase in intracellular IL8 level induced by lactic acid treatment (in words): significantly inhibited
[3]; GLY 0.005% + lactic acid 0.6%
  C18:1 Mean ± SD, amount normalized to C16:0: 0.2785
  C18:2 LA Mean ± SD, amount normalized to C16:0: 0.1600
  C20:4 AA Mean ± SD, amount normalized to C16:0: 0.0435
  C18:1 Change: −28%
  C18:2 LA Change: −25%
  C20:4 AA Change: −24%
[3]; GLY 0.01% + lactic acid 0.6%
  C18:1 Mean ± SD, amount normalized to C16:0: 0.2680
  C18:2 LA Mean ± SD, amount normalized to C16:0: 0.1440
  C20:4 AA Mean ± SD, amount normalized to C16:0: 0.0395
  C18:1 Change: −31%
  C18:2 LA Change: −32%
  C20:4 AA Change: −31%

## CCCCCCCCCCCC1=NC(C)(C)CO1 [OX100, Cycloceramide]
[1]; OX100 10 μM + lactic acid 0.6%
  Released IL1-alpha Mean ± Standard deviation: 27 ± 13 pg/mL
  Released IL8 Mean ± Standard deviation: 175 ± 30 pg/mL
  Released PGE2 Mean ± Standard deviation: 98 ± 28 pg/mL
  Released IL1-alpha Change: −61%
  Released IL8 Change: −16%
  Released PGE2 Change: −50%
[1]; [4]
  Released IL1-alpha Mean ± Standard deviation: 31 ± 19 pg/mL
  Released IL8 Mean ± Standard deviation: 146 ± 24 pg/mL
  Released PGE2 Mean ± Standard deviation: 100 ± 48 pg/mL
  Released IL1-alpha Change: −54%
  Released IL8 Change: −30%
  Released PGE2 Change: −49%
[1]; concentration not given
  Release of IL1α induced by lactic acid (in words): significantly inhibited
  Release of IL8 induced by lactic acid (in words): significantly inhibited
  Release of PGE2 induced by lactic acid (in words): significantly inhibited
[2]; OX100 10 μM + lactic acid 0.6%
  IL1RA/IL1-alpha ratio Mean ± SD: 25.6 ± 0.276
  Intracellular IL1-alpha Mean ± SD: 919.5 ± 53.03 pg/mg protein
  Intracellular IL1RA Mean ± SD: 23566 ± 1624 pg/mg protein
  Intracellular IL8 Mean ± SD: 76.24 ± 8.309 pg/mg protein
  IL1RA/IL1-alpha ratio Change: +4%
  Intracellular IL1-alpha Change: −12%
  Intracellular IL1RA Change: −8%
  Intracellular IL8 Change: −4%
[2]; [4]
  IL1RA/IL1-alpha ratio Mean ± SD: 20.5 ± 0.481
  Intracellular IL1-alpha Mean ± SD: 713.5 ± 113.8 pg/mg protein
  Intracellular IL1RA Mean ± SD: 14581 ± 1989 pg/mg protein
  Intracellular IL8 Mean ± SD: 56.95 ± 7.460 pg/mg protein
  IL1RA/IL1-alpha ratio Change: −17%
  Intracellular IL1-alpha Change: −32%
  Intracellular IL1RA Change: −43%
  Intracellular IL8 Change: −28%
[2]; concentration not given
  IL1RA/IL1α ratio (in words): maintained the balance of the IL1RA/IL1α ratio
  Increase in intracellular IL1RA level induced by lactic acid treatment (in words): significantly inhibited
[3]; OX100 10 μM + lactic acid 0.6%
  C18:1 Mean ± SD, amount normalized to C16:0: 0.2795
  C18:2 LA Mean ± SD, amount normalized to C16:0: 0.1515
  C20:4 AA Mean ± SD, amount normalized to C16:0: 0.0380
  C18:1 Change: −28%
  C18:2 LA Change: −29%
  C20:4 AA Change: −34%
[3]; [4]
  C18:1 Mean ± SD, amount normalized to C16:0: 0.2065
  C18:2 LA Mean ± SD, amount normalized to C16:0: 0.0970
  C20:4 AA Mean ± SD, amount normalized to C16:0: 0.0265
  C18:1 Change: −47%
  C18:2 LA Change: −54%
  C20:4 AA Change: −54%
